# Measurements taken from patent US9540325B2, “N1-cyclic amine-N5-substituted phenyl biguanide derivatives, methods of preparing the same and pharmaceutical composition comprising the same” (Immunomet Therapeutics, Inc., priority 2011, dated 2017).
# Experiments:
# AMPKα = assay: Measurement of AMPK activation effect (AMPKα Thr172 phosphorylation immunoassay) in MCF7 cells; type: cell-based, human; settings: 24 hours; for AMPK activation effect at 10 μM (%) / AMPK activation effect at 50 μM (%): relative to untreated cells; for AMPK activation effect AC150: concentration at which AMPK activation reached 150%
# Method in brief: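 MCF7 cells in DMEM/10% FBS were treated 24 h with derivatives at 5, 10 and 50 μM (metformin hydrochloride control, 0.05–10 mM). AMPKα Thr172 phosphorylation was measured by immunoassay on 20 μg lysate. AC150 (concentration giving 150% activation) came from concentration–response curves, with activation also reported at fixed concentrations.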
# HCT116 cells = assay: Measurement of effect of inhibiting cancer cell proliferation (MTT); type: cell-based, human; settings: for inhibition at 100 µM: HCT-116, 100 μM, read-out: Cell Growth Inhibition (%) at 100 μM
# Method in brief: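 HCT116 cells (~5,000/well, DMEM with 10% FBS) treated 48 h with compound at 0.39–100 μM, metformin hydrochloride control at 0.1–25 mM. Viability by MTT (3 h, formazan in DMSO, A560) relative to untreated wells; GIC50 from the viability curve, also viability at 100 μM.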
# [1] = Solubility in water of hydrochloride and acetate salts; type: physicochemical; settings: content 5 mg/1 ml distilled water, room temperature
# Method: The solubilities in water of the hydrochlorides prepared in Examples 26, 27, 32, 33, 48, 49, 53 and 54, and the solubilities in water of the acetates prepared in Examples 70 to 77, were compared.
# The experimental conditions and methods are described, as follows.
# 1) 1 ml of distilled water is added to a container including 5 mg of salt at room temperature.
# 2) The resulting mixture is stirred for 10 minutes, and then kept at room temperature for 1 hour.
# 3) Undissolved residual salt is recovered and weighed.
# 4) The ratio of the amount of the recovered salt and the amount of the dissolved salt is calculated.
# 5) Operations 1) to 4) are repeatedly performed with increasing amount (i.e., 10, 15, 20, 25 and 30 mg) of salt.
# The experimental procedures were performed for each of the hydrochlorides of Examples 26, 27, 32, 33, 48, 49, 53 and 54 and the acetates of Examples 70 to 77. The comparative solubilities obtained using the hydrochlorides of Examples 26, 27, 32, 33, 48, 49, 53 and 54 and the acetates of Examples 70 to 77 are listed in the following Table 1.
Structure (SMILES),melting point [°C],AMPK activation effect at 10 μM (%) (AMPKα),AMPK activation effect at 50 μM (%) (AMPKα),AMPK activation effect AC150 (AMPKα) [µM],"inhibition at 100 µM (HCT116 cells; Homo sapiens, 48 hours) [%]","GI50 (HCT116 cells; Homo sapiens, HCT-116, 48 h) [µM]","Solubility in water (%), hydrochloride salt [1] [%]","GI50 (HCT116 cells; 48 hours, hydrochloride) [µM]"
"Cl.N=C(NC(=N)N1CCCCCC1)Nc1cccc(Cl)c1 [Example 21, N1-azepane-N5-(3-chloro)phenyl biguanide hydrochloride]",213 to 215,211,653,4.8,97,41.5,,
"Cl.N=C(NC(=N)N1CCCCC1)Nc1ccc(C(F)(F)F)cc1 [Example 27, N1-piperidine-N5-(4-trifluoromethyl)phenyl biguanide hydrochloride]",273 to 274,455,,2.4,97.7,6.7,20,
"Cl.N=C(NC(=N)N1CCCCC1)Nc1cccc(Cl)c1 [Example 20, N1-piperidine-N5-(3-chloro)phenyl biguanide hydrochloride]",172 to 174,236,558,3.2,97.5,48.2,,
"Cl.N=C(NC(=N)N1CCCC1)Nc1ccc(C(F)(F)F)cc1 [Example 26, N1-pyrrolidine-N5-(4-trifluoromethyl)phenyl biguanide hydrochloride]",283 to 284,255,642,3.1,97.6,,80,22.7
